Article PMC9965539, “Adverse Toxic Effects of Tyrosine Kinase Inhibitors on Non-Target Zebrafish Liver (ZFL) Cells” (International Journal of Molecular Sciences, 2023)

What was measured:
[1] = test system: zebrafish liver cells (ZFL); experiment: Alkaline comet assay (DNA strand breaks); type: cell-based; details: 24 h of exposure, non-cytotoxic concentrations
Protocol: The induction of DNA strand breaks after TKI exposure was assessed by the comet assay according to Møller et al., with minor modifications. Briefly, ZFL cells were seeded at a density of 100,000 cells/well onto 12-well cell culture plates (Corning Costar Corporation, New York, NY, USA) and incubated for 24 h to attach. […] B(a)P (50 μM) was used as a positive control. After treatment, ZFL cells were trypsinized, collected, and centrifuged. Thirty μL of the cell suspension was mixed with 70 μL of 1% LMP agarose and placed on fully frosted slides pre-coated with 80 μL of 1% NMP agarose. Cells were then lysed for 1 h at 4 °C (2.5 M NaCl, 100 mM EDTA, 10 mM Tris, 1% Triton X-100, pH 10). DNA was subsequently denatured in electrophoresis buffer (1 mM EDTA, 300 mM NaOH, pH 13) for 20 min at 4 °C and slides were electrophoresed at 25 V (at 1 V/cm) for 20 min. Finally, nuclei were stained with GelRed (Biotium, Fremont, CA, USA). Images of 50 randomly selected nuclei per experimental point were acquired with the Eclipse 800 fluorescence microscope (Nikon, Tokyo, Japan) at 400× magnification using image analysis software (Comet Assay IV, Instem, UK). The statistical significance between control and treated groups was determined by one-way analysis of variance (ANOVA, Kruskal–Wallis) and Dunn’s multiple comparison test. * p < 0.05 was considered statistically significant.

[2] = test system: zebrafish liver cells (ZFL); experiment: Micronucleus detection by flow cytometry; type: cell-based; details: 72 h; for MNi frequency: non-cytotoxic concentrations
Protocol: ZFL cells were seeded onto 24-well culture plates (Nunclon) at a density of 35,000 cells per well for 24 h. […] Etoposide (0.17 μM and 0.68 μM) was used as a positive control. After 72 h, cells were placed on ice for 20 min, and subsequently a 0.05 mg/mL EMA solution was added to each well. The cells were placed on ice for 30 min and exposed to light for photoactivation of the EMA fluorochrome. Afterwards, cells were washed and resuspended in lysis solution (0.584 mg/mL NaCl, 1 mg/mL sodium citrate, and 0.3 μL/mL Triton X-100) containing 0.2 μM SYTOX Green and 0.25 mg/mL RNAse A, and incubated for 1 h in the dark at 37 °C. After incubation, lysis solution (85.6 mg/mL sucrose and 15 mg/mL citric acid) containing 0.2 μM SYTOX Green was added to the wells of the plate and incubated for a further 30 min at room temperature in the dark. Cells were analyzed on the same day using MACSQuant Analyzer 10 flow cytometer. MASCQuantify Software 2.11. was used to analyze each sample, and the percentage of micronuclei was determined after the acquisition of a total of 20,000 gated nuclei events, excluding EMA-positive events. One-way ANOVA with post hoc multiple comparison Dunett’s test using GraphPad Prism V6 (GraphPad Software, Carlsbad, CA, USA) was carried out. * p < 0.05 and *** p < 0.0001 were considered statistically significant.

[3] = test system: zebrafish liver cells (ZFL); experiment: Propidium iodide live/dead staining by flow cytometry; type: cell-based; details: for percentage of PI negative cells: 72 h exposure, low concentrations
Protocol: Benzo[a]pyrene (50 μM), an indirect-acting genotoxic agent which requires metabolic activation for its genotoxic effects, and etoposide (0.17 μM), a direct-acting genotoxic agent, were selected as positive controls. After 72 h, floating and adherent cells were collected, resuspended in ice-cold 1x PBS, and immediately analyzed. Propidium iodide (PI) at a final concentration of 1 μg/mL was added to the cells 5 min before the start of measurements using the MACSQuant Analyzer 10 flow cytometer (Miltenyi Biotech, Bergisch Gladbach, Germany). MASCQuantifiy software (Miltenyi Biotech, Bergisch Gladbach, Germany) was used to quantify PI negative and positive cells. The experiments were repeated three times independently. Statistical significance between the treated groups and control was determined by one-way ANOVA with post hoc multiple comparison Dunett’s test using GraphPad Prism V6 (GraphPad Software, La Jolla, CA, USA). * p < 0.05 was considered statistically significant.

H295R cells = test system: H295R cells; parameters: method as in Silveira et al. 28; details: 10 µM; ref Silveira et al. 28; cited from earlier work
[4] = test system: zebrafish liver cells (ZFL); experiment: MTS assay, viability of ZFL cells; type: cell-based; details: for viability of the ZFL cells: 24, 48, 72 h, dose- and time-dependent, ERL and NIL up to their maximum solubility; for cytotoxic effects in ZFL cells (MTS): concentrations up to 60 µM, up to 72 h exposure
Protocol: (§1) The viability of ZFL cells after 24, 48, and 72 h of exposure to TKIs was determined using the tetrazolium-based (MTS) assay (Cell Titer 96 AQueous Non-Radioactive Cell Proliferation Assay; Promega, Madison, WI, USA) as previously described by Novak et al.. Cells were seeded in 96-well microtiter plates (Corning Costar Corporation, New York, NY, USA) at a density of 7000 cells/well. […] Three independent experiments were performed, each with five replicates per treatment point. The statistical significance between the treated groups and the solvent control was determined by Student’s t-test using GraphPad Prism V6 (GraphPad Software, La Jolla, CA, USA). *** (p < 0.001)was considered statistically significant.

A549 cells = test system: A549 cells; parameters: method as in Kryeziu et al. 65; details: 20 µM, 6 h exposure; ref Kryeziu et al. 65; cited from earlier work
[5] = test system: human ovarian cancer cells (SKOV-3 cells); parameters: method as in Mak et al. 66; details: 10 µM, 72 h; ref Mak et al. 66; cited from earlier work
[6] = test system: ovarian carcinoma A2780 cells; parameters: method as in PMID 28223694; details: up to 10 μM, 24 h; cited from earlier work
HepG2 and HepaRG cells = test system: HepG2 and HepaRG cells; parameters: method as in PMID 28659801; details: 20 µM highest concentration tested; cited from earlier work
Huh-7 cells = details: 24 h; cited from earlier work
H520 and H1975 cells = test system: H520 and H1975 cells; parameters: method as in PMID 24447935; details: highest concentration tested; cited from earlier work
[7] = test system: human lymphocytes or Chinese hamster ovary cells in vitro and rat bone marrow; details: ref 11 (REG), 69 (ERL), 59 (NIL); cited from earlier work
HepG2 cells = details: 24 h of exposure; cited from earlier work
[8] = test system: zebrafish liver cells (ZFL); experiment: Cell cycle analysis with flow cytometry; type: cell-based; details: 72 h; for effect on cell cycle progression: concentration-dependent, parallel decrease in S-phase fraction
Protocol: ZFL cells were seeded onto T25 culture plates at a density of 450,000 cells for 24 h. […] The positive control was etoposide (0.17 μM), which is known to arrest cells in the G2/M phase of the cell cycle. After 72 h, cells were trypsinized (0.25% trypsin-EDTA) and washed with 1x PBS before fixation in 4% paraformaldehyde (PFA). For flow cytometric analysis, fixed cells were washed in cold 1x PBS and stained with Hoechst 33258 dye (diluted in 0.1% Triton X-100 1:500) as described by Stampar et al.. Flow cytometric measurements were performed using a MACSQuant Analyzer 10 and the experiment was repeated three times independently. Each time, 20,000 single cells were recorded per experimental point. The data obtained were analyzed using FlowJo V10 software (Becton Dickinson, Franklin Lakes, NJ, USA). Statistical analysis for cell cycle was performed by the two-way ANOVA with Fisher’s LSD test using GraphPad Prism V6 (GraphPad Software, La Jolla, CA, USA). * p < 0.05, ** (p < 0.01), *** (p < 0.001) were considered statistically significant.

Alium cepa = test system: Alium cepa; parameters: method as in doi:10.1508/cytologia.86.195; details: dose-dependent; cited from earlier work
[9] = test system: certain target cancer cells; parameters: method as in ref 56, 57 (DAS), 58, 59 (REG); details: in vitro; 57 (DAS), 58, 59 (REG); cited from earlier work
[10] = test system: human lymphoblastoid TK6 cells; parameters: method as in PMID 25111698; details: up to 4.4 μM, 24 h, without and with metabolic activation; cited from earlier work
[11] = MTS assay, viability of ZFL cells; type: cell-based, zebrafish; details: zebrafish, ZFL cells (zebrafish liver cell line), ZFL cells, read-out: IC50 for TKIs Cytotoxicity (95% Confidence Interval)
Protocol: as §1

Structure (SMILES) | concentration with statistically significant increase in percentage of tail DNA [1] [nM] | MNi frequency [2] | viability of the ZFL cells [4] | cytotoxic effects in ZFL cells (MTS) [4] | percentage of PI negative cells [3] | mutagenicity/genotoxicity (chromosomal damage/genomic instability) [7] | concentration that induced G0/G1 cell cycle arrest with decrease in number of cells in S phase [8] [µM] | effect on cell cycle progression [8] | further results
Cc1cn(-c2cc(NC(=O)c3ccc(C)c(Nc4nccc(-c5cccnc5)n4)c3)cc(C(F)(F)F)c2)cn1 [NIL, nilotinib] | ≥ 2000 | did not significantly increase | did not affect cell viability | no cytotoxic effects |  |  |  |  | decrease of the percentage of PI negative cells ([3]; highest concentration tested, 72 h): approximately 20%; decrease of survival (H295R cells): 62.9%
COc1cc([C@@H]2c3cc4c(cc3[C@@H](O[C@@H]3O[C@@H]5CO[C@@H](C)O[C@H]5[C@H](O)[C@H]3O)[C@H]3COC(=O)[C@H]23)OCO4)cc(OC)c1O [etoposide, Etoposide] |  |  |  |  |  |  |  |  | MNi in representative dot plot ([2]; 0.17 μM): increased amount of MNi
C#Cc1cccc(Nc2ncnc3cc(OCCOC)c(OCCOC)cc23)c1 [ERL, erlotinib] |  | did not significantly increase | did not affect cell viability | no cytotoxic effect | did not significantly decrease | not mutagenic/genotoxic | 40 | arrest of the cell cycle in the G0/G1 phase | DNA damage (alkaline comet assay) (A549 cells): did not induce DNA damage; percentage of tail DNA [5]: increases the percentage of tail DNA; MNi formation [6]: did not induce MNi formation; cytotoxicity (HepG2 and HepaRG cells): only slight cytotoxicity; concentration with cell cycle arrest (Huh-7 cells): 25 µM; reduction in viability (H520 and H1975 cells): 20%; concentration inducing apoptosis (HepG2 cells): 25 µM; concentration inducing cell cycle arrest (HepG2 cells): 10 µM; mitotic index and cytological aberrations (Alium cepa): decreased the mitotic index and increased cytological aberrations
CNC(=O)c1cc(Oc2ccc(NC(=O)Nc3ccc(Cl)c(C(F)(F)F)c3)c(F)c2)ccn1 [REG, regorafenib] | ≥ 800 | did not significantly increase | reduced |  | did not significantly decrease | not mutagenic/genotoxic | 3 | arrest of the cell cycle in the G0/G1 phase | DNA damage assessed by comet assay [9]: induce DNA damage; MNi formation [10]: did not induce MNi formation; IC50 at 24 h ([11]; 24 h exposure): 5.64 µM; IC50 at 48 h ([11]; 48 h exposure): 4.54 µM; IC50 at 72 h ([11]; 72 h exposure): 3.59 µM
